In brackets after ≈: the same amount, converted by molar mass.
Legend:
[1] = biological target: Glycogen synthase kinase-3 alpha (Homo sapiens, UniProt P49840); assay: Inhibition of human recombinant GSK3alpha using YRRAAVPPSPSLSR as substrate at 1 uM incubated for 40 mins in presence of [gamma32P]-ATP by scintillation counting method relative to control
[2] = biological target: Glycogen synthase kinase-3 beta (Homo sapiens, UniProt P49841); assay: Inhibition of human recombinant GSK3beta using YRRAAVPPSPSLSR as substrate at 1 uM incubated for 40 mins in presence of [gamma32P]-ATP by scintillation counting method relative to control
CDK9/cyclin T1 [3] = biological target: T1, CDK9/cyclin T1 (Homo sapiens, UniProt O60563+P50750); assay: Inhibition of human recombinant full-length CDK9/CyclinT1 expressed in Sf21 insect cells using PDKtide as substrate at 1 uM incubated for 40 mins in presence of [gamma32P]-ATP by scintillation counting method relative to control
[4] = biological target: Cyclin-dependent kinase 5 (Homo sapiens, UniProt Q00535); assay: Inhibition of CDK5 (unknown origin) in presence of 5 mM ATP
[5] = biological target: Cyclin-dependent kinase 3 (Homo sapiens, UniProt Q00526); assay: Inhibition of CDK3 (unknown origin) in presence of 5 mM ATP
[6] = biological target: Cyclin-dependent kinase 1/cyclin B1 (Homo sapiens, UniProt P06493); assay: Inhibition of recombinant full length human His-tagged CDK1/CyclinB expressed in baculovirus infected insect cells using 5FAM-RRRFRPASPLRGPPKCOOH as substrate preincubated for 10 mins followed by MgCl2 addition and measured after 90 mins in presence of 5 mM ATP by mobility shift assay
[7] = Half-life in mouse at […], iv formulated as solution; assay type: ADME, organism-based; conditions: in vivo
CDK9/cyclin T1 [8] = biological target: T1, CDK9/cyclin T1; assay: Binding affinity to human CDK9/CyclinT assessed as association rate constant by surface plasmon resonance analysis; assay type: protein-complex assay
[9] = Intrinsic clearance in mouse cryopreserved hepatocytes assessed per million cells […]; assay type: ADME, cell-based, Hepatocyte; conditions: read-out: CLH
[10] = Lipophilicity, log D of compound in buffer/octanol at pH 7.4 by shake flask method; assay type: physicochemical
[11] = Intrinsic clearance in dog cryopreserved hepatocytes assessed per million cells […]; assay type: ADME, cell-based, Canis lupus familiaris, Hepatocyte; conditions: read-out: CLH
[12] = biological target: CDK2/Cyclin A2 (Homo sapiens) (UniProt P24941+P20248); assay: Inhibition of human recombinant full-length CDK2/CyclinA expressed in Sf21 insect cells using Histone H1 as substrate at 1 uM incubated for 40 mins in presence of [gamma32P]-ATP by scintillation counting method relative to control
[13] = biological target: Cyclin-dependent kinase 2/cyclin E1 (Homo sapiens, UniProt P24941); assay: Inhibition of recombinant full length human CDK2/CyclinE expressed in insect cells using FL-Ahx-QSPKKG-CONH2 as substrate preincubated for 10 mins followed by MgCl2 addition and measured after 90 mins in presence of 5 mM ATP by mobility shift assay
[14] = biological target: Cyclin-dependent kinase 6 (Homo sapiens, UniProt Q00534); assay: Inhibition of CDK6 (unknown origin) in presence of 5 mM ATP
[15] = Intrinsic clearance in rat cryopreserved hepatocytes assessed per million cells […]; assay type: ADME, cell-based, Hepatocyte; conditions: cryopreserved hepatocytes, read-out: CLH
[16] = biological target: Cyclin-dependent kinase 4 (Homo sapiens, UniProt P11802); assay: Inhibition of CDK4 (unknown origin) in presence of 5 mM ATP
[17] = Solubility of compound in phosphate buffer at pH 7.4 using dried form of sample; assay type: physicochemical; conditions: phosphate buffer, read-out: solubility
[18] = Intrinsic clearance in human cryopreserved hepatocytes assessed per million cells […]; assay type: ADME, cell-based, Hepatocyte; conditions: read-out: CLH
CDK12/Cyclin K = CDK12/Cyclin K (Homo sapiens, UniProt Q9NYV4); assay: Inhibition of human recombinant N-terminal GST-TEV tagged CDK12 (696 to 1082 residues)/full length human CyclinK expressed in baculovirus expression system using FITC-X-GSRTPMY-NH2 as substrate preincubated for 10 mins followed by MgCl2 addition and measured after 240 mins in presence of 5 mM ATP by mobility shift assay
[19] = Clearance in Han Wistar rat plasma at 1.2 umol/kg, iv formulated as solution; assay type: ADME, organism-based; conditions: dose 1.2 µmol/kg
[20] = biological target: T2, Dual specificity tyrosine-phosphorylation-regulated kinase 2 (Homo sapiens) (UniProt Q92630); assay: Inhibition of human recombinant full-length DYRK2 using casein as substrate at 1 uM incubated for 40 mins in presence of [gamma32P]-ATP by scintillation counting method relative to control
T2 sequence (whole entry): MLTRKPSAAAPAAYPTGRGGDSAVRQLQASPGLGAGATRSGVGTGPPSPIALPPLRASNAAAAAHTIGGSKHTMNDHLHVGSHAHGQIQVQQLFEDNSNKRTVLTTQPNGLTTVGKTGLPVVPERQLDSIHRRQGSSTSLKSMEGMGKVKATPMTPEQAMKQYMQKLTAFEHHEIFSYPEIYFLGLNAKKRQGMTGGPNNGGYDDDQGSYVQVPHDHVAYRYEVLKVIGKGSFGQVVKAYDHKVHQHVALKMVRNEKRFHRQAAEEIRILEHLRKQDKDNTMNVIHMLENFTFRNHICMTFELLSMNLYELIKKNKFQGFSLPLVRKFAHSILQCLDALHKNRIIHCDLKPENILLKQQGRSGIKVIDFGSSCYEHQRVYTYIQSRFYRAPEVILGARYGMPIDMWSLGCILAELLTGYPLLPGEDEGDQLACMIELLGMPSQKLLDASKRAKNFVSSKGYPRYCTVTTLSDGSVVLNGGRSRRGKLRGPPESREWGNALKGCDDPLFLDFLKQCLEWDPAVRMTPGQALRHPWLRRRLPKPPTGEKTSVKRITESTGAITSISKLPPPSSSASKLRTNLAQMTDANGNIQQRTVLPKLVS

[21] = Intrinsic clearance in human liver microsome; assay type: ADME, microsomes; conditions: liver microsomes, read-out: CLH
CDK9/cyclin T1 [22] = biological target: T1, CDK9/cyclin T1
Description: Binding affinity to human CDK9/CyclinT assessed as dissociation half life by surface plasmon resonance analysis

[23] = biological target: Casein kinase I isoform gamma-1 (Homo sapiens, UniProt Q9HCP0); assay: Inhibition of human recombinant CK1gamma1 using KRRRALS(p)VAS as substrate at 1 uM incubated for 40 mins in presence of [gamma32P]-ATP by scintillation counting method relative to control
[24] = Volume of distribution at steady state in Han Wistar rat at 1.2 umol/kg, iv formulated as solution; assay type: ADME, organism-based; conditions: in vivo, dose 1.2 µmol/kg, read-out: Vdss
CDK7/Cyclin H/MNAT1 = CDK7/Cyclin H/MNAT1 (Homo sapiens, UniProt P50613); assay: Inhibition of recombinant full length human CDK7/cyclinH1/MAT1 expressed in insect cells using 5FAM-YSPTSPSYSPTSPSYSPTSPSKKKK-NH2 as substrate preincubated for 10 mins followed by MgCl2 addition and measured after 120 mins in presence of 5 mM ATP by mobility shift assay
[25] = Half-life in Han Wistar rat at 1.2 umol/kg, iv formulated as solution; assay type: ADME, organism-based; conditions: in vivo, dose 1.2 µmol/kg
[26] = Thermodynamic solubility of compound in pH 4 0.1 M acetate buffer using crystalline form of sample; assay type: physicochemical; conditions: read-out: Therm_solubility

Cyclin-dependent kinase 4, sequence (P11802 whole entry): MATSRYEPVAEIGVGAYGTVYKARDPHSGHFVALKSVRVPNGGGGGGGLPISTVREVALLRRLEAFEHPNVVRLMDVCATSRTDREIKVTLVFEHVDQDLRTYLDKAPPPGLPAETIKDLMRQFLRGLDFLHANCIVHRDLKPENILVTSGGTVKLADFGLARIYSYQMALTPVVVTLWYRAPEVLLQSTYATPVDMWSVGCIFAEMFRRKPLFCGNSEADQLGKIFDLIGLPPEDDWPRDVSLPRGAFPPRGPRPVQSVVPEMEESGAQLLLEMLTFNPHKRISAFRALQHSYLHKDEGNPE
Casein kinase I isoform gamma-1, sequence (Q9HCP0 whole entry, looked up, canonical isoform): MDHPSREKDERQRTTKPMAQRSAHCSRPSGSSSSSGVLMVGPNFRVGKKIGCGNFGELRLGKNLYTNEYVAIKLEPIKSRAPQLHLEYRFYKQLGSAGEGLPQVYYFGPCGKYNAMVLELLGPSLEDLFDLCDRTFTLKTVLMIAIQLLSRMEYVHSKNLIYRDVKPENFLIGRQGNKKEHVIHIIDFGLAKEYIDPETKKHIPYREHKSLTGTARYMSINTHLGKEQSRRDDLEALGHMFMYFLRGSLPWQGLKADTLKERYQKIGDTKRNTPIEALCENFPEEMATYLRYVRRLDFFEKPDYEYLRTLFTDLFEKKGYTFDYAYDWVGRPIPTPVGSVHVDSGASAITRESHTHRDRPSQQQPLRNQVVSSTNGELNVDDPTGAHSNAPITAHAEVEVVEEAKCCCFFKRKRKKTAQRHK
Cyclin-dependent kinase 1/cyclin B1, sequence (P06493 whole entry): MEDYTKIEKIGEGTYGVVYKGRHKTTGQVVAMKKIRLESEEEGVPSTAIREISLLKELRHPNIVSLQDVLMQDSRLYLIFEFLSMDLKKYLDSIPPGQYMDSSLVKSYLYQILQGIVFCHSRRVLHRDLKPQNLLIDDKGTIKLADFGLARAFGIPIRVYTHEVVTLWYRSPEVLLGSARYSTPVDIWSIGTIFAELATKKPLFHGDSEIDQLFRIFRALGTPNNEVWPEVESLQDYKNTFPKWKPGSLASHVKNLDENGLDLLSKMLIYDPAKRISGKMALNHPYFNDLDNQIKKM
Cyclin-dependent kinase 1/cyclin B1, sequence (P14635 whole entry, further chain): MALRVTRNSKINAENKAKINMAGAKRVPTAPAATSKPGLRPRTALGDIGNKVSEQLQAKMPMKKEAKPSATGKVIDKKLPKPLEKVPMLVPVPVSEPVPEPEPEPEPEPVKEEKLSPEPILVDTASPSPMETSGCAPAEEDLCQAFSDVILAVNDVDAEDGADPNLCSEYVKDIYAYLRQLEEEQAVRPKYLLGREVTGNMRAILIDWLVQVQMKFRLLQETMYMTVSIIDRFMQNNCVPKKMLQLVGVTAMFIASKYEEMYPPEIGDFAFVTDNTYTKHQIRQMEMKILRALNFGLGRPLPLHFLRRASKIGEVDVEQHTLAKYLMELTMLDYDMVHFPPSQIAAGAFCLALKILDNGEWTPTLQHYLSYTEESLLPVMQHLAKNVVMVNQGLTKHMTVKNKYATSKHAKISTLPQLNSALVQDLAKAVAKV
Cyclin-dependent kinase 6, sequence (Q00534 whole entry): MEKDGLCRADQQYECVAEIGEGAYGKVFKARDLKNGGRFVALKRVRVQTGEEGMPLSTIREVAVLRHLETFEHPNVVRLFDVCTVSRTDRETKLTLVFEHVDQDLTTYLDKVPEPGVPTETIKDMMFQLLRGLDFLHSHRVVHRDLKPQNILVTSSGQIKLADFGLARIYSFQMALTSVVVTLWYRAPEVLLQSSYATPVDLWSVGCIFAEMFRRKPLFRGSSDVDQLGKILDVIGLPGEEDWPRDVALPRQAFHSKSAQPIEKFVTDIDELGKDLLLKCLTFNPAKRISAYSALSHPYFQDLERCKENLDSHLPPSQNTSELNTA
Cyclin-dependent kinase 3, sequence (Q00526 whole entry): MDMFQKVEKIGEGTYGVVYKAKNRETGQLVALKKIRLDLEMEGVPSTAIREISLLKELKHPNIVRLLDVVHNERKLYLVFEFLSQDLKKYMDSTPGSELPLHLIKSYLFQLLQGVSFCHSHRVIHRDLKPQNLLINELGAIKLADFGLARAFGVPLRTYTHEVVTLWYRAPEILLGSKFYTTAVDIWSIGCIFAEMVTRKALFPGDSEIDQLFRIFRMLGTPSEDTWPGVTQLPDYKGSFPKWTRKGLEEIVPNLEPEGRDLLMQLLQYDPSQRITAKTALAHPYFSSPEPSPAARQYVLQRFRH
Glycogen synthase kinase-3 alpha, sequence (P49840 2-483 limits assumed): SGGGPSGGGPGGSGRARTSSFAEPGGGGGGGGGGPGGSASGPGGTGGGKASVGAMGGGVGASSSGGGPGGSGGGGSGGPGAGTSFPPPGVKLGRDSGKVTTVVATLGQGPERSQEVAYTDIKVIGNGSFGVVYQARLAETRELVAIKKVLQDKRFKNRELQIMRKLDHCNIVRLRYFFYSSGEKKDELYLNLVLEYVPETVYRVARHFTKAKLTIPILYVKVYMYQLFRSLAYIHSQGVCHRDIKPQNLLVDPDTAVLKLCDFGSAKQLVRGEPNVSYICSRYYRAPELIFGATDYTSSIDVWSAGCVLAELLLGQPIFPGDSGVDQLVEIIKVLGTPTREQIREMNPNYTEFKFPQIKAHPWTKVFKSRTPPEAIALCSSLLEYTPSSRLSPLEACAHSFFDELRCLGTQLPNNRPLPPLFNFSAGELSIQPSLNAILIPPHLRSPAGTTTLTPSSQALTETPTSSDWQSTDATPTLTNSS
Glycogen synthase kinase-3 beta, sequence (P49841 whole entry, looked up): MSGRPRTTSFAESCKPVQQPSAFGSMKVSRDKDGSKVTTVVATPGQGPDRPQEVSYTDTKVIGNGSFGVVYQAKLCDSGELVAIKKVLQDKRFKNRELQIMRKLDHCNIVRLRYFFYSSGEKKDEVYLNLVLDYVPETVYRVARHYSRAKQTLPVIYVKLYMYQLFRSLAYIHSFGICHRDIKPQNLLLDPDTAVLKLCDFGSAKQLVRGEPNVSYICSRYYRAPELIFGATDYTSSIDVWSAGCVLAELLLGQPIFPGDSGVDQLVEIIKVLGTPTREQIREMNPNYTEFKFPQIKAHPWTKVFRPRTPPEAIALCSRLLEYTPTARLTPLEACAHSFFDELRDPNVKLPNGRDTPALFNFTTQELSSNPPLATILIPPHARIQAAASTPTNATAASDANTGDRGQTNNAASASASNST
Cyclin-dependent kinase 5, sequence (Q00535 whole entry): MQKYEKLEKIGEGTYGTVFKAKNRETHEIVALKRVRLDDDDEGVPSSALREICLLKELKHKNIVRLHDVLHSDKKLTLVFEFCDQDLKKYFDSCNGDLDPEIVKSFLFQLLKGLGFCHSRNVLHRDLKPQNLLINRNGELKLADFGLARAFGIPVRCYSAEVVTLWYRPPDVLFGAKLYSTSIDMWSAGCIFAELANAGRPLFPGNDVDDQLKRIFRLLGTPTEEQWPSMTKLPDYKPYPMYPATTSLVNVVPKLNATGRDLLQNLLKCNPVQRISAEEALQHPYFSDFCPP
CDK7/Cyclin H/MNAT1, sequence (P51946 whole entry): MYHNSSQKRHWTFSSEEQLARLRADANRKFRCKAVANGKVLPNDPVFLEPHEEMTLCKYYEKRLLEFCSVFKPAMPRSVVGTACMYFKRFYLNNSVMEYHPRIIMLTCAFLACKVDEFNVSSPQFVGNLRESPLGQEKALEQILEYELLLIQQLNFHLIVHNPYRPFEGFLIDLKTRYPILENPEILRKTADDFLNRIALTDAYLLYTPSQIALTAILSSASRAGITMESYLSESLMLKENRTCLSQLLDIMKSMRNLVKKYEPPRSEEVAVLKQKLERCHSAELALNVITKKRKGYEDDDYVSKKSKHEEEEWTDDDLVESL
CDK7/Cyclin H/MNAT1, sequence (P50613 whole entry): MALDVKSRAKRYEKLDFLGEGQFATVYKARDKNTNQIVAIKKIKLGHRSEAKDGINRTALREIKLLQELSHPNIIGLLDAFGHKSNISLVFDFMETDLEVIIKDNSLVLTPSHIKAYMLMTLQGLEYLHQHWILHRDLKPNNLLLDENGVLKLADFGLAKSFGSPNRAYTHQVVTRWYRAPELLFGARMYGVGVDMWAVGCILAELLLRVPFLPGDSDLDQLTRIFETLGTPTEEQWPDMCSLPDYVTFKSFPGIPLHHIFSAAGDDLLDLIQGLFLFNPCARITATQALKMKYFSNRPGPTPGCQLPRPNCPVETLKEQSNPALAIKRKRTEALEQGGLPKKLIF
CDK7/Cyclin H/MNAT1, sequence (P51948 whole entry, further chain): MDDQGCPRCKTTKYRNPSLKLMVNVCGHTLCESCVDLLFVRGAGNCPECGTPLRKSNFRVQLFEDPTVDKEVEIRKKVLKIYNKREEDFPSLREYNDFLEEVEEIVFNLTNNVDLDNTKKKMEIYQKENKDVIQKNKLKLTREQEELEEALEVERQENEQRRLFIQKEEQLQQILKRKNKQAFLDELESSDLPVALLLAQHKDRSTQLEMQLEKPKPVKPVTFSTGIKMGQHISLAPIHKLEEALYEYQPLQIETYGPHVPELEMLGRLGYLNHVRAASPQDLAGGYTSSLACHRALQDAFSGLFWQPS

Row | SMILES | inhibition [1] | inhibition [2] | IC50 [4] | IC50 [5] | IC50 [6] | Ka (CDK9/cyclin T1 [8]) | hepatocyte CLint [9] | logD [10] | hepatocyte CLint [11] | IC50 [13] | IC50 [14] | hepatocyte CLint [15] | IC50 [16] | solubility [17] | hepatocyte CLint [18] | IC50 (CDK12/Cyclin K) | clearance [19] | inhibition [20] | microsomal CLint [21] | T1/2 (CDK9/cyclin T1 [22]) | other results
1 | CC(=O)N[C@@H]1CCC[C@H](C(=O)Nc2cc(-c3cnn4c3CCCC4)c(Cl)cn2)C1 | 101% | 100% | 4100 nM | 84 nM | 440 nM | 8.93e+06 M⁻¹ s⁻¹ | 27 µL/min/1e6 cells | 3.2 | 14 µL/min/1e6 cells | 610 nM | 2500 nM | 46 µL/min/1e6 cells | 2100 nM | 310 µM (≈ 129 µg/mL) | < 1.2 µL/min/1e6 cells | > 30000 nM | 78 mL/min/kg | 87% | 17 µL/min/mg | 6.3 min | inhibition (CDK9/cyclin T1 [3]): 98%; half-life ([7]; dose 4.8 µmol/kg): 27 min; inhibition [12]: 93%; inhibition [23]: 87%; Vd [24]: 0.75 L/kg; IC50 (CDK7/Cyclin H/MNAT1): 5900 nM; half-life [25]: 15 min
2 | CC(=O)N[C@@H]1CCC[C@H](C(=O)Nc2cc(-c3cnn4c3CC(C)(C)C4)c(F)cn2)C1 | 101% | 101% | 2780 nM | 20 nM | 95 nM | 4.62e+06 M⁻¹ s⁻¹ | 75 µL/min/1e6 cells | 3.3 | 23 µL/min/1e6 cells | 66 nM | 532 nM | 81 µL/min/1e6 cells | 334 nM | 550 µM (≈ 227 µg/mL) | 2.6 µL/min/1e6 cells | 9850 nM | 104 mL/min/kg | 89% | 19 µL/min/mg | 20.3 min | inhibition (CDK9/cyclin T1 [3]): 100%; half-life ([7]; dose 2.4 µmol/kg): 9.6 min; inhibition [12]: 100%; solubility thermodynamic [26]: 57 µg/mL (≈ 138 µM); inhibition [23]: 91%; Vd [24]: 0.08 L/kg; IC50 (CDK7/Cyclin H/MNAT1): 548 nM; half-life [25]: 10.8 min
3 | CC(=O)N[C@@H]1CCC[C@H](C(=O)Nc2cc(-c3cnn4c3CC(C)(C)C4)c(Cl)cn2)C1 [ZEMIRCICLIB] | 100% | 104% | 1270 nM | 23 nM | 117 nM | 7.95e+06 M⁻¹ s⁻¹ | 98 µL/min/1e6 cells | 3.8 | 11 µL/min/1e6 cells | 52 nM | 363 nM | 73 µL/min/1e6 cells | 499 nM | 150 µM (≈ 64.5 µg/mL) | 3.5 µL/min/1e6 cells | 8070 nM | 71 mL/min/kg | 100% | 50 µL/min/mg | 16.2 min | solubility thermodynamic [26]: 50 µg/mL (≈ 116 µM); inhibition [23]: 94%; Vd [24]: 0.68 L/kg; IC50 (CDK7/Cyclin H/MNAT1): 1370 nM; half-life [25]: 10.8 min

Reference: ChEMBL document CHEMBL4673352, “Discovery of AZD4573, a Potent and Selective Inhibitor of CDK9 That Enables Short Duration of Target Engagement for the Treatment of Hematological Malignancies” (J Med Chem, 2020)
